Test results published in patent US20160355530A1, “HEPATITIS C INHIBITORS AND USES THEREOF” (AbbVie Inc., priority 2010, published 2016).
Like-named read-outs stand apart in the source and are kept apart here.

Key:
[1] = molecular target: T1, HCV NS5B polymerase 1a-H77 (Hepatitis C virus genotype 1a, UniProt P27958); experiment: biochemical; design: species or system HCV genotype 1a; conditions: enzyme, strain 1a H77; read-out: HCV Polymerase Strain 1a H77 IC50
T1 construct: six-histidine tag; made in house; host or cells: E. coli
Method in brief: (§1)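 E. coli-expressed NS5B (residues 1-570, His-tagged) transcribed a 2.1 kb HCV 1b negative-strand 3′-end RNA template (5 nM) with 20 μM CTP, 20 μM ATP and 0.284 μM [3H]UTP for 3 h at 30° C. Spermine-precipitated RNA was filter-captured and counted by scintillation; IC50 from nonlinear regression.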

[2] = molecular target: T2, HCV NS5B polymerase 1a-H77-C316Y (Hepatitis C virus genotype 1a, UniProt P27958, C2736Y); experiment: biochemical; design: species or system HCV genotype 1a
T2 construct: six-histidine tag; made in house; host or cells: E. coli
Method in brief: as §1

[3] = tested on: HCV NS5B polymerase 1a-H77-C316Y; experiment: biochemical; design: species or system HCV genotype 1a; conditions: ratio of enzyme IC50s, 1a H77-C316Y / 1a H77
Method in brief: as §1

[4] = molecular target: T3, HCV NS5B polymerase 1b BK strain (Hepatitis C virus genotype 1b, UniProt P26663); experiment: HCV NS5B polymerase enzymatic inhibition assay, strain 1b BK; format: biochemical; conditions: enzyme, strain 1b BK; read-out: HCV Polymerase Strain 1b BK IC50
T3 construct: six-histidine tag; made in house; host or cells: E. coli
Method in brief: as §1

[5] = tested on: HCV 1a-H77 subgenomic replicon; experiment: microbe, parasite or virus in culture; format: cell-based, HCV genotype 1a; conditions: Hepatitis C virus, stable replicon
[6] = tested on: HCV 1b-BB7 subgenomic replicon; experiment: microbe, parasite or virus in culture; format: cell-based, HCV genotype 1b; conditions: Hepatitis C virus, stable replicon
[7] = 5% FBS, absence of human plasma, read-out: Stable Replicon 1a H77 5% FBS EC50
[8] = strain 1a H77, 5% FBS + 40% human plasma, read-out: 1a H77 5% FBS + 40% Human Plasma EC50
[9] = strain 1a H77, 5% FBS, no human plasma, read-out: 1a H77 5% FBS EC50
[10] = strain 1a H77, 5% FBS, read-out: 1a H77 5% FBS EC50
[11] = strain 1b BB7, 5% FBS + 40% human plasma, read-out: 1b BB7 5% FBS + 40% Human Plasma EC50
[12] = strain 1b BB7, 5% FBS, no human plasma, read-out: 1b BB7 5% FBS EC50
[13] = strain 1b BB7, 5% FBS, read-out: 1b BB7 5% FBS EC50

T3 sequence (P26663 2420-2989): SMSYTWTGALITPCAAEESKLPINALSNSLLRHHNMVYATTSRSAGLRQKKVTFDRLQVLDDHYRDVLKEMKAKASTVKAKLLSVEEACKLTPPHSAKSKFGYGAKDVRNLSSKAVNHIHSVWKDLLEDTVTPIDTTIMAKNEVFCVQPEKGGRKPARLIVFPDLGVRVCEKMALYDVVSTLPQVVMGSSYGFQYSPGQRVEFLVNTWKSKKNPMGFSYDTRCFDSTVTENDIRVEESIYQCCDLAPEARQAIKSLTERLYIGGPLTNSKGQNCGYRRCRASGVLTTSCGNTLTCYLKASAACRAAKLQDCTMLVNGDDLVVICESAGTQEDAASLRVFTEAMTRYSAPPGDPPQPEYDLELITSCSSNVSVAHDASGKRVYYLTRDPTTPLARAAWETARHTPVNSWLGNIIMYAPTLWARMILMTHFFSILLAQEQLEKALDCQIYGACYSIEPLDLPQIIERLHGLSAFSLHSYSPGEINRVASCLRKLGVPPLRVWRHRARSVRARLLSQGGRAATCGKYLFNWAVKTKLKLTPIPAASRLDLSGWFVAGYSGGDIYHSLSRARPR
T2 sequence (P27958 2421-2990 C2736Y): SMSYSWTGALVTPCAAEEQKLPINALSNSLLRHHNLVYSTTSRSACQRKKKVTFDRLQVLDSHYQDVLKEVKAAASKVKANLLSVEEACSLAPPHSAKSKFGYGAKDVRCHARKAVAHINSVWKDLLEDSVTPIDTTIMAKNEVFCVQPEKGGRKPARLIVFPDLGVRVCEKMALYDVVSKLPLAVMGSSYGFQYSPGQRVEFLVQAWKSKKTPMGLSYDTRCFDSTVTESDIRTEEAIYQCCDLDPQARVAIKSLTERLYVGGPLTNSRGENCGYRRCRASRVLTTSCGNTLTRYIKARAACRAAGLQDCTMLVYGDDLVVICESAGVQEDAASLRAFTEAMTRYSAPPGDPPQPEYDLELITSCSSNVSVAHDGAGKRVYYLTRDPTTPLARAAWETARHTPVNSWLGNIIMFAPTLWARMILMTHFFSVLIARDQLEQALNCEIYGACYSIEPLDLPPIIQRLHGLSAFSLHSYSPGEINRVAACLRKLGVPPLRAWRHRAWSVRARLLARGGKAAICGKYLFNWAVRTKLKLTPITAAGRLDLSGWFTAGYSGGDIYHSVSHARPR
T1 sequence (P27958 2421-2990): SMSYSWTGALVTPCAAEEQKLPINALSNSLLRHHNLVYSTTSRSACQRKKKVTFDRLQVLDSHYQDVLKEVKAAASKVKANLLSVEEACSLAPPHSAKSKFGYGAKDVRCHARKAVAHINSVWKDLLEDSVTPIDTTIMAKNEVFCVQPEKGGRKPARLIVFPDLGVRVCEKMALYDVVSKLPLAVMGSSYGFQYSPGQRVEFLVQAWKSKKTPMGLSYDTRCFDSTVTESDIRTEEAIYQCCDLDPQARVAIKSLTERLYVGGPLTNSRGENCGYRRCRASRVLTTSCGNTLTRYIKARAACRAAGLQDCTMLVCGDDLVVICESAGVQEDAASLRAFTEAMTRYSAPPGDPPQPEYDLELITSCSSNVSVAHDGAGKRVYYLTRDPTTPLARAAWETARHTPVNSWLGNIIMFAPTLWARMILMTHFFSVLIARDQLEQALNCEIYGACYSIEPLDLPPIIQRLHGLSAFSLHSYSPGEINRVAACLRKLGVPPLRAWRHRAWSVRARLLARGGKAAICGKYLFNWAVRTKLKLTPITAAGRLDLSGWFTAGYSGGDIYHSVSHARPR

Row | SMILES | IC50 [1] | IC50 [2] | C316Y/1a Fold Resistance [3] | IC50 [4] | EC50 [5, 7] | EC50 [5, 8] | EC50 [5, 9] | EC50 [5, 10] | EC50 [6, 11] | EC50 [6, 12] | EC50 [6, 13]
1 | CC(C)CCN(c1cc2oc(-c3ccc(F)cc3)c(-c3nccc(=O)[nH]3)c2cc1C1CC1)S(C)(=O)=O [Example 161, N-[5-cyclopropyl-2-(4-fluorophenyl)-3-(6-oxo-1,6-dihydropyrimidin-2-yl)-1-benzofuran-6-yl]-N-(3-methylbutyl)methanesulfonamide] | 47.5 nM | 219 nM | 5 fold | 791 nM | 124 nM | 7910 nM | 124 nM | 124 nM | 10000 nM | 188 nM | 188 nM
2 | CS(=O)(=O)NC(=O)CCCN(c1cc2oc(-c3ccc(F)cc3)c(-c3ncc[nH]3)c2cc1C1CC1)S(C)(=O)=O [Example 105, 4-{[5-cyclopropyl-2-(4-fluorophenyl)-3-(1H-imidazol-2-yl)-1-benzofuran-6-yl](methylsulfonyl)amino}-N-(methylsulfonyl)butanamide] | 8 nM | 111 nM | 14 fold | 16 nM | 108 nM | 1060 nM | 108 nM | 108 nM | 519 nM | 68.6 nM | 68.6 nM
3 | CS(=O)(=O)N(CC1CCCC1)c1cc2oc(-c3ccc(F)cc3)c(-c3ncc[nH]3)c2cc1C1CC1 [Example 34, N-(cyclopentylmethyl)-N-[5-cyclopropyl-2-(4-fluorophenyl)-3-(1H-imidazol-2-yl)-1-benzofuran-6-yl]methanesulfonamide] | 5 nM | 149 nM | 30 fold | 22 nM | 70 nM | 1290 nM | 70 nM | 70 nM | 854 nM | 65 nM | 65 nM
4 | CS(=O)(=O)N(CC(O)CO)c1cc2oc(-c3ccc(F)cc3)c(-c3ncc[nH]3)c2cc1C1CC1 (stereo not drawn) [Example 93, N-[5-cyclopropyl-2-(4-fluorophenyl)-3-(1H-imidazol-2-yl)-1-benzofuran-6-yl]-N-(2,3-dihydroxypropyl)methanesulfonamide] | 5 nM | 1600 nM | 320 fold | 117 nM | 83.2 nM | 915 nM | 83.2 nM | 83.2 nM | 880 nM | 63.4 nM | 63.4 nM
5 | CC(C)(C)Oc1ncc(-c2ncc(CN(c3ccc4c(-c5ncc[nH]5)c(-c5ccccc5)oc4c3)S(C)(=O)=O)s2)c(OC(C)(C)C)n1 [Example 27, N-{[2-(2,4-di-tert-butoxypyrimidin-5-yl)-1,3-thiazol-5-yl]methyl}-N-[3-(1H-imidazol-2-yl)-2-phenyl-1-benzofuran-6-yl]methanesulfonamide] | 214 nM | 3800 nM | 18 fold | 99 nM | 866 nM | 10000 nM | 866 nM | 866 nM | 5460 nM | 75 nM | 75 nM
6 | CS(=O)(=O)N(CCCC(=O)N1CCCCC1)c1cc2oc(-c3ccc(F)cc3)c(-c3ncc[nH]3)c2cc1C1CC1 [Example 104, N-[5-cyclopropyl-2-(4-fluorophenyl)-3-(1H-imidazol-2-yl)-1-benzofuran-6-yl]-N-[4-oxo-4-(piperidin-1-yl)butyl]methanesulfonamide] | 6.9 nM | 180 nM | 26 fold | 52 nM | 31.9 nM | 502 nM | 31.9 nM | 31.9 nM | 268 nM | 13.3 nM | 13.3 nM
